{
  "source": "patent US20230097253A1",
  "about": "“NOVEL QUINAZOLINE COMPOUND AS THERAPEUTIC AGENT FOR METABOLIC DISORDERS” (BIOWAY., INC, priority 2020, published 2023)",
  "type_in_all_cases": "cell-based",
  "key": {"[1]": {"test_system": "steatosis-induced Huh7 cells", "experiment": "Quantitative analysis of mRNA of lipogenesis-related factors (qRT-PCR)", "settings": "250 μM PA, 0.5 μM, 24 hours, compared to the control group, FIG. 9-B", "experimental": "(§1) To induce steatosis in Huh-7 cells in each well except for control cells, the Huh-7 cells were treated with PA bound to 2% BSA at a concentration of 250 μM except for the control, and the control cells were pretreated with 2% BSA without FA.\nThe cells in each well were treated with the compound of Chemical Formula 2 according to the present invention 0.5 μM and then cultured for 24 hours. The control cells and PA treated cells were treated with DMSO. All media were aspirated and the cells were gently washed 3 times with cold PBS.\n(§2) Additionally, the total RNA was extracted using the RNeasy RNA isolation kit (Qiagen, Hilden, Germany).\n(§3) Additionally, 10 μL of […] per mL of a cell lysis solution was additionally prepared.\n(§4) Additionally, the cells were washed twice with cold PBS and 350 μL of RNA lysis buffer was added thereto.\n(§5) Additionally, 70% EtOH was added to the lysate in an equal volume, mixed by pipetting, transferred to a spin column, and centrifuged at 8,000×g for 15 seconds.\nAdditionally, the flow-through solution was removed and 700 μL of a wash solution was added to the spin column, centrifuged at 8,000×g, and the flow-through solution was removed. […]\nAdditionally, RNA concentration was measured at OD 260 nm using the Nanophotometer N60 (Implen, Munich, Germany) […]"}, "[2]": {"test_system": "Huh7 cells induced with inflammatory response", "experiment": "Gene expression in liver cells induced with inflammatory response (qRT-PCR)", "settings": "Huh7 cells pretreated with IL-1β; 0.5, 2.5, 10 μM; FIG. 11, FIG. 12", "experimental": "After culturing the Huh-7 cells to grow to a confluency of 80-90% in a 6 well plate, except for the control, the cells were pretreated with IL-1β and then treated with BW-3290, which is the compound of the present invention, diluted in the culture medium to concentrations of 0.5 μM, 2.5 μM, and 10 μM, so as to induce an inflammatory response.\nas §2, §3, §4, §5\nAdditionally, the flow-through solution was removed and 700 μL of a wash solution was added to the spin column, centrifuged at 8,000×g, and the flow-through solution was removed.\nAdditionally, 500 μL of the wash buffer containing EtOH was added to the spin column and centrifuged at 8,000×g for 2 minutes (repeated 2 times)\nAdditionally, the flow-through solution was discarded and centrifuged once more to completely dry the spin column membrane.\nAdditionally, the spin column was placed into a new Eppendorf tube and 50 μL of RNase-free water was added directly to the spin column membrane and centrifuged at 8,000×g for 1 minute to dissolve and isolate the RNA.\nAdditionally, RNA concentration was measured at OD 260 nm using the Nanophotometer N60 (Implen, Munich, Germany)\nAdditionally, 1 μg of total RNA was reverse transcribed in the first strand synthesis buffer containing oligo (dT) primer (6 μg/mL), random primer (3 μg/mL), 50 U of reverse transcriptase, 4 mM dNTP, […], 5 mM magnesium chloride (MgCl2), and 40 U of RNase inhibitor.\nAdditionally, cDNA was synthesized using a polymerase chain reaction (PCR) device which was set to undergo denaturation at 95° C. for 5 minutes, cDNA synthesis at 42° C. for 50 minutes, and denaturation at 95° C. for 5 minutes. […]"}, "[3]": {"test_system": "steatosis-induced Huh7 cells", "experiment": "Protein expression for verification of multiple mode regulator, with and without AMPK inhibitor (western blot)", "experimental": "as §1\n[…] The control cells and PA treated cells were treated with DMSO. All media were aspirated and the cells were gently washed 3 times with cold PBS.\nA cold lysis buffer containing 150 mM sodium chloride (NaCl), 5 mM ethylenediaminetetraacetic acid (EDTA), pH 8.0, […] 4-(2-hydroxyethyl)-1-piperazineethanesulfonic acid (HEPES), 1% nonylphenoxypolyethoxylethanol (NP-40), 2 μg/mL aprotinin, 1 μM pepstatin A, 10 μM leupeptin, 1 mM sodium fluoride (NaF), 0.2 mM sodium orthovanadate ([…]), and 1 μM phenylmethylsulfonyl fluoride (PMSF) was added thereto.\nA whole cell lysate was collected and gently pipetted at least 10 times to ensure complete lysis. The sample was incubated on ice for 20 minutes and centrifuged 4° C. at 13,000 rpm, for 20 minutes. The supernatant was collected, 5× sodium dodecyl sulfate (SDS) sample buffer containing 50 mM Tris-CI (pH 6.8), 2% SDS, 0.1% bromopheol blue, and 10% glycerol was added to the sample, and boiled at 95° C. for 5 minutes.\nThe wells of 10% SDS-polyacrylamide gel electrophoresis (SDS-PAGE) were loaded with the same amount of a protein along with the molecular weight marker. The gel was electrophoresed at 100 V for 30 minutes in an electrophoresis chamber (Bio-Rad Laboratories, Hercules, Calif., USA).\nA polyvinylidene fluoride (PVDF) membrane (MilliporeSigma, Burlington, Mass., USA) was activated with methanol (MeOH) for 1 minute and washed with a transfer buffer containing 25 mM Tris, 190 mM glycine, and 20% MeOH. The gel was placed in the transfer buffer for 10 minutes.\nThe transfer sandwich (in the order of paper, gel, membrane, and paper) was assembled and it was checked whether no air bubbles were trapped in the transfer sandwich. […]\nImages were acquired using an ImageQuant LAS 3000 (Fujifilm, Tokyo, Japan). Data were analyzed."}},
  "data": [
    {"smiles": "CC(C)C(Nc1ncnc2nc[nH]c12)c1nc2cccc(Cl)c2c(=O)n1-c1ccccc1", "note": "(centres unmarked) [BW-3290, 2-(1-((7H-purin-6-yl)amino)-2-methylpropyl)-5-chloro-3-phenylquinazolin-4(3H)-one]", "values": [
      {"measurement": "gene expression (mRNA) of FAS", "setting": "[1]", "value": "reduced"},
      {"measurement": "gene expression (mRNA) of SREBP-1c", "setting": "[1]", "value": "reduced"},
      {"measurement": "gene expression level of IL-6", "setting": "[2]", "value": "decreased in a concentration-dependent manner"},
      {"measurement": "gene expression level of IL-8", "setting": "[2]", "value": "decreased in a concentration-dependent manner"},
      {"measurement": "gene expression level of TNF-α", "setting": "[2]", "value": "decreased in a concentration-dependent manner"},
      {"measurement": "activity of SIRT1 and AMPK (p-AMPK, p-ACC) when AMPK activity is inhibited", "setting": "[3]; 250 μM PA, 10 μM compound C (AMPK inhibitor), 10 and 20 μM BW-3290, 24 hours, FIG. 15", "value": "increases the activity of SIRT1 and AMPK"},
      {"measurement": "AMPK protein expression level", "setting": "[3]; 0.5, 2.5, 10 μM, FIG. 13", "value": "increase in a concentration-dependent manner"},
      {"measurement": "SIRT1 protein expression level", "setting": "[3]; 0.5, 2.5, 10 μM, FIG. 13", "value": "increase in a concentration-dependent manner"}
    ]}
  ]
}
